In PubChem BioAssay AID248 (DTP/NCI, 2004):
“And” between values parts separate entries of the source, which are not always exact repeats. Equal entries are not always repeated. Inconclusive results and toxic doses are left out.

Tested on: L1210 leukemia ip in BDF1 mice, survival T/C
Experiment: NCI In Vivo Anticancer Drug Screen. Data for tumor model L1210 Leukemia (intraperitoneal) in B6D2F1 (BDF1) mice
Conditions: higher = longer survival
In short: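 Transplanted-tumor mice were given test agent; controls received vehicle only. Survival readings from the two groups were divided (treated over control).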

Q: What does the source list for `COc1cc2c(c(OC)c1OC)-c1ccc(OC)c(=O)cc1[C@@H](NC(C)=O)CC2`?
A: T/C (endpoint: mean survival time, dose: 0.01 mg/kg/injection, schedule: Q01DX010 (ip), vehicle: saline): 96 % of control and 97 % of control; T/C (endpoint: mean survival time, dose: 0.02 mg/kg/injection, schedule: Q01DX010 (ip), vehicle: saline): 93 % of control and 103 % of control; T/C (endpoint: mean survival time, dose: 0.04 mg/kg/injection, schedule: Q01DX010 (ip), vehicle: saline): 102 % of control and 103 % of control; T/C (endpoint: mean survival time, dose: 0.06 mg/kg/injection, schedule: Q01DX015 (ip), vehicle: saline): 98 % of control; T/C (endpoint: mean survival time, dose: 0.08 mg/kg/injection, schedule: Q01DX010 (ip), vehicle: saline): 102 % of control and 115 % of control; T/C (endpoint: mean survival time, dose: 0.09 mg/kg/injection, schedule: Q01DX015 (ip), vehicle: saline): 100 % of control; T/C (endpoint: mean survival time, dose: 0.09 mg/kg/injection, schedule: Q02DX008 (ip), vehicle: saline): 97 % of control; T/C (endpoint: mean survival time, dose: 0.1 mg/kg/injection, schedule: Q## X032 (ip), vehicle: saline): 98 % of control; T/C (endpoint: mean survival time, dose: 0.13 mg/kg/injection, schedule: Q01DX009 (ip), vehicle: saline): 110 % of control; T/C (endpoint: mean survival time, dose: 0.13 mg/kg/injection, schedule: Q01DX015 (ip), vehicle: saline): 104 % of control; T/C (endpoint: mean survival time, dose: 0.13 mg/kg/injection, schedule: Q02DX008 (ip), vehicle: saline): 97 % of control; T/C (endpoint: mean survival time, dose: 0.16 mg/kg/injection, schedule: Q## X032 (ip), vehicle: saline): 97 % of control; T/C (endpoint: mean survival time, dose: 0.2 mg/kg/injection, schedule: Q01DX015 (ip), vehicle: saline): 113 % of control; T/C (endpoint: mean survival time, dose: 0.2 mg/kg/injection, schedule: Q02DX008 (ip), vehicle: saline): 103 % of control; T/C (endpoint: mean survival time, dose: 0.24 mg/kg/injection, schedule: Q## X032 (ip), vehicle: saline): 100 % of control; T/C (endpoint: mean survival time, dose: 0.25 mg/kg/injection, schedule: Q01DX005 (oral), vehicle: saline): 102 % of control; T/C (endpoint: mean survival time, dose: 0.25 mg/kg/injection, schedule: Q01DX009 (ip), vehicle: saline): 113 % of control; T/C (endpoint: mean survival time, dose: 0.25 mg/kg/injection, schedule: Q04DX003 (ip), vehicle: saline): 121 % of control; T/C (endpoint: mean survival time, dose: 0.3 mg/kg/injection, schedule: Q01DX015 (ip), vehicle: saline): 117 % of control; T/C (endpoint: mean survival time, dose: 0.3 mg/kg/injection, schedule: Q02DX008 (ip), vehicle: saline): 106 % of control; T/C (endpoint: mean survival time, dose: 0.36 mg/kg/injection, schedule: Q## X032 (ip), vehicle: saline): 102 % of control; T/C (endpoint: mean survival time, dose: 0.45 mg/kg/injection, schedule: Q02DX008 (ip), vehicle: saline): 120 % of control; T/C (endpoint: mean survival time, dose: 0.5 mg/kg/injection, schedule: Q01DX001 (iv), vehicle: saline): 93 % of control; T/C (endpoint: mean survival time, dose: 0.5 mg/kg/injection, schedule: Q01DX005 (oral), vehicle: saline): 101 % of control; T/C (endpoint: mean survival time, dose: 0.5 mg/kg/injection, schedule: Q01DX009 (ip), vehicle: saline): 108 % of control; T/C (endpoint: mean survival time, dose: 0.5 mg/kg/injection, schedule: Q04DX003 (ip), vehicle: saline): 116 % of control; T/C (endpoint: mean survival time, dose: 0.5 mg/kg/injection, schedule: Q## X032 (ip), vehicle: saline): 105 % of control; T/C (endpoint: mean survival time, dose: 0.54 mg/kg/injection, schedule: Q04DX004 (ip), vehicle: saline): 112 % of control; T/C (endpoint: mean survival time, dose: 0.54 mg/kg/injection, schedule: Q## X032 (ip), vehicle: saline): 105 % of control; T/C (endpoint: mean survival time, dose: 0.6 mg/kg/injection, schedule: Q## X004 (ip), vehicle: saline): 112 % of control; T/C (endpoint: mean survival time, dose: 0.8 mg/kg/injection, schedule: Q04DX004 (ip), vehicle: saline): 114 % of control; T/C (endpoint: mean survival time, dose: 0.8 mg/kg/injection, schedule: Q## X032 (ip), vehicle: saline): 114 % of control; T/C (endpoint: mean survival time, dose: 0.9 mg/kg/injection, schedule: Q## X004 (ip), vehicle: saline): 114 % of control; T/C (endpoint: mean survival time, dose: 1.0 mg/kg/injection, schedule: Q01DX001 (iv), vehicle: saline): 97 % of control; T/C (endpoint: mean survival time, dose: 1.0 mg/kg/injection, schedule: Q01DX005 (oral), vehicle: saline): 100 % of control; T/C (endpoint: mean survival time, dose: 1.0 mg/kg/injection, schedule: Q01DX009 (ip), vehicle: saline): 122 % of control; T/C (endpoint: mean survival time, dose: 1.0 mg/kg/injection, schedule: Q04DX003 (ip), vehicle: saline): 104 % of control; T/C (endpoint: mean survival time, dose: 1.2 mg/kg/injection, schedule: Q04DX004 (ip), vehicle: saline): 116 % of control; T/C (endpoint: mean survival time, dose: 1.25 mg/kg/injection, schedule: Q01DX001 (ip), vehicle: saline): 101 % of control and 114 % of control and 123 % of control; T/C (endpoint: mean survival time, dose: 1.3 mg/kg/injection, schedule: Q## X004 (ip), vehicle: saline): 121 % of control; T/C (endpoint: mean survival time, dose: 1.6 mg/kg/injection, schedule: Q## X032 (ip), vehicle: saline): 124 % of control; T/C (endpoint: mean survival time, dose: 2.0 mg/kg/injection, schedule: Q01DX001 (iv), vehicle: saline): 107 % of control; T/C (endpoint: mean survival time, dose: 2.0 mg/kg/injection, schedule: Q01DX001 (oral), vehicle: saline): 91 % of control; T/C (endpoint: mean survival time, dose: 2.0 mg/kg/injection, schedule: Q01DX005 (oral), vehicle: saline): 92 % of control; T/C (endpoint: mean survival time, dose: 2.0 mg/kg/injection, schedule: Q## X004 (ip), vehicle: saline): 156 % of control; T/C (endpoint: mean survival time, dose: 2.5 mg/kg/injection, schedule: Q01DX001 (ip), vehicle: saline): 118 % of control and 124 % of control; T/C (endpoint: mean survival time, dose: 3.6 mg/kg/injection, schedule: Q## X032 (ip), vehicle: saline): 102 % of control; T/C (endpoint: mean survival time, dose: 4.0 mg/kg/injection, schedule: Q01DX001 (iv), vehicle: saline): 97 % of control; T/C (endpoint: mean survival time, dose: 4.0 mg/kg/injection, schedule: Q01DX001 (oral), vehicle: saline): 100 % of control; T/C (endpoint: mean survival time, dose: 4.0 mg/kg/injection, schedule: Q08DX002 (ip), vehicle: saline): 108 % of control; T/C (endpoint: mean survival time, dose: 5.0 mg/kg/injection, schedule: Q01DX001 (ip), vehicle: saline): 94 % of control and 118 % of control; T/C (endpoint: mean survival time, dose: 8.0 mg/kg/injection, schedule: Q01DX001 (oral), vehicle: saline): 92 % of control; T/C (endpoint: mean survival time, dose: 31.2 micrograms/kg/injection, schedule: Q03HX024 (ip), vehicle: saline): 97 % of control; T/C (endpoint: mean survival time, dose: 62.5 micrograms/kg/injection, schedule: Q01DX005 (iv), vehicle: saline): 100 % of control; T/C (endpoint: mean survival time, dose: 62.5 micrograms/kg/injection, schedule: Q01DX009 (ip), vehicle: saline): 101 % of control; T/C (endpoint: mean survival time, dose: 62.5 micrograms/kg/injection, schedule: Q03HX016 (ip), vehicle: saline): 102 % of control; T/C (endpoint: mean survival time, dose: 62.5 micrograms/kg/injection, schedule: Q03HX024 (ip), vehicle: saline): 104 % of control; T/C (endpoint: mean survival time, dose: 125.0 micrograms/kg/injection, schedule: Q01DX005 (iv), vehicle: saline): 98 % of control; T/C (endpoint: mean survival time, dose: 125.0 micrograms/kg/injection, schedule: Q01DX009 (ip), vehicle: saline): 115 % of control; T/C (endpoint: mean survival time, dose: 125.0 micrograms/kg/injection, schedule: Q03HX008 (ip), vehicle: saline): 123 % of control; T/C (endpoint: mean survival time, dose: 125.0 micrograms/kg/injection, schedule: Q03HX016 (ip), vehicle: saline): 107 % of control; T/C (endpoint: mean survival time, dose: 125.0 micrograms/kg/injection, schedule: Q03HX024 (ip), vehicle: saline): 109 % of control; T/C (endpoint: mean survival time, dose: 250.0 micrograms/kg/injection, schedule: Q01DX005 (iv), vehicle: saline): 98 % of control; T/C (endpoint: mean survival time, dose: 250.0 micrograms/kg/injection, schedule: Q03HX016 (ip), vehicle: saline): 121 % of control; T/C (endpoint: mean survival time, dose: 250.0 micrograms/kg/injection, schedule: Q03HX024 (ip), vehicle: saline): 96 % of control; T/C (endpoint: mean survival time, dose: 500.0 micrograms/kg/injection, schedule: Q01DX005 (iv), vehicle: saline): 100 % of control; T/C (endpoint: mean survival time, dose: 1000.0 micrograms/kg/injection, schedule: Q01DX005 (iv), vehicle: saline): 107 % of control; T/C (endpoint: mean survival time, dose: 1000.0 micrograms/kg/injection, schedule: Q01DX009 (ip), vehicle: saline): 87 % of control; T/C (endpoint: median survival time, dose: 0.02 mg/kg/injection, schedule: Q01DX009 (ip), vehicle: saline): 93 % of control and 100 % of control; T/C (endpoint: median survival time, dose: 0.04 mg/kg/injection, schedule: Q01DX009 (ip), vehicle: saline): 100 % of control; T/C (endpoint: median survival time, dose: 0.08 mg/kg/injection, schedule: Q01DX009 (ip), vehicle: saline): 106 % of control and 111 % of control; T/C (endpoint: median survival time, dose: 0.16 mg/kg/injection, schedule: Q01DX009 (ip), vehicle: saline): 112 % of control

Q: `NC(N)=N/N=C(\C=C\c1ccccc1)C(=O)O` was tested. Which T/C (endpoint: mean survival time, dose: 240.0 mg/kg/injection, schedule: Q01DX Z (ip), vehicle: methylcellulose (MC)) did it give?
A: The T/C was 102 % of control.

Q: What about the T/C (endpoint: mean survival time, dose: 360.0 mg/kg/injection, schedule: Q01DX Z (ip), vehicle: methylcellulose (MC)) of the same compound?
A: The T/C was 100 % of control.

Q: And the T/C (endpoint: mean survival time, dose: 480.0 mg/kg/injection, schedule: Q01DX Z (ip), vehicle: methylcellulose (MC))?
A: Its T/C is 96 % of control.

Q: Which T/C (endpoint: mean survival time, dose: 50.0 mg/kg/injection, schedule: Q01DX009 (ip), vehicle: saline) does the source give for `CN(C)/C=C1\C(=O)Nc2c1c(=O)n(C)c(=O)n2C` here?
A: The T/C was 93 % of control.

Q: And the T/C (endpoint: mean survival time, dose: 100.0 mg/kg/injection, schedule: Q01DX009 (ip), vehicle: saline)?
A: The T/C was 90 % of control.
